Assay results published in US6818215B2, “Antibodies to senescent cell-derived inhibiters of DNA synthesis” (priority 1991, dated 2004).

Legend:
Type in all cases: cell-based
[1] = test system: hamster dihydrofolate reductase (DHFR) promoter; assay: CAT reporter transcription assay, DHFR-CAT
Description: (§1) The effect of the human SDI-1 on transcription driven by two E2F-responsive promoters was determined. Proliferating A31 cells were transfected with an SDI-1 expression vector in which the SDI-1 cDNA was driven by the strong constitutive cytomegalovirus early promoter (CMV) together with a reporter vector in which the chloramphenicol acetyltransferase (CAT) gene was driven by either the hamster dihydrofolate reductase (DHFR) promoter or the human cdc2 promoter (cdc2-CAT). A31 cells are Balb/c murine 3T3 fibroblasts whose origin and growth properties have been described (Lu, K. et al., Molec. Cell. Biol. 9:3411-3417 (1989); Dimri, G. P et al., J. Biol. Chem. 269:16180-16186 (1994), herein incorporated by reference). Cells were transfected with 2 μg of expression vectors, reporters vectors (for transactivation) and the CMV-β-gal identification/normalization vector using Lipofectamine (Gibco-BRL), as described by Dimri, G. P et al. (J. Biol. Chem. 269:16180-16186 (1994), herein incorporated by reference), The vector backbone was added to the mixture as needed to equalize the amount of transfected DNA. Seventy-two hours later, the cells were lysed and assayed for chloramphenicol acetyl transferase (CAT) and β-galactosidase activity. Both DHFR and cdc2 were expressed by proliferating cells, largely due to E2F-mediated transcription that is dependent on E2F binding sites in the 5′ regulatory regions of these genes (Slansky, J. E. et al., Molec. Cell. Biol. 13:1610-1618 (1993); Dalton, S., EMBO J. 11:1797-1804 (1992)).
(§2) The SDI-1 expression vector, CMV-SDI-1, but not the control vector, suppressed CAT activity driven by either the DHFR or cdc2 promoter (Table 16). CMV-SDI-1 was maximally inhibitory at above 2 μg of DNA under the assay conditions used. CAT activity in Table 16 is reported in counts per minute, normalized to the β-galactosidase activity. At this concentration, CMV-SDI-1 inhibited the DHFR promoter, which contains two strong E2F binding sites (Slansky, J. E. et al., Molec. Cell. Biol. 13:1610-1618 (1993)), somewhat more strongly than the cdc2 promoter, which contains a single E2F binding site (Dalton, S., EMBO J. 11:1797-1804 (1992)) (50-70% inhibition vs 40-50% inhibition). This difference in sensitivity is consistent with the finding that the DHFR promoter is somewhat more sensitive than the cdc2 promoter to stimulation by E2F1, a component of E2F (Dimri, G. P et al., J. Biol. Chem. 269:16180-16186 (1994)). At the concentrations used here, CMV-SDI-1 inhibited DHFR-CAT and cdc2-CAT expression to approximately the same extent that it inhibited DNA replication.

[2] = test system: B16 murine melanoma cell line; assay: Lipofectamine liposome-mediated delivery of SDI-1 protein
[3] = test system: SV40 transformed cell line GM639; assay: Transient transfection of SDI-1, inhibition of DNA synthesis
From the text: (§3) This provides further evidence that SDI-1 behaves like the inhibitor previously detected in senescent cells.

SUSMI = assay: as above
From the text: as §3

SV 40 early promoter = assay: CAT reporter transcription assay, SV-CAT
Description: as §1
In sharp contrast to the response of the DHFR and cdc2 promoters, CMV-SDI-1 had little or no effect on reporter activity driven by either the SV 40 early promoter (SV-CAT or the c-fos promoter (fos-CAT) (Table 16). Neither the SV40 early genes nor c-fos has been reported to be E2F-responsive.

human cdc2 promoter = assay: CAT reporter transcription assay, cdc2-CAT
Description: as §1, §2

## SDI-1: senescent cell derived inhibitor of DNA synthesis, 164 amino acid protein, SEQ ID NO:2
[1]; SDI-1 0.2 μg, A31 cells
  % Activity: 97%
  % Inhibition: 4%
  Normalized CAT Activity: 9155 counts per minute
[1]; SDI-1 1.0 μg
  % Activity: 87%
  % Inhibition: 13%
  Normalized CAT Activity: 8196 counts per minute
[1]; SDI-1 2.0 μg
  % Activity: 28%
  % Inhibition: 72%
  Normalized CAT Activity: 2613 counts per minute
[1]; SDI-1 4.0 μg
  % Activity: 19%
  % Inhibition: 81%
  Normalized CAT Activity: 1757 counts per minute
[2]; 48 hr
  3H-Tdr Uptake: 2134 ± 294
  Cell Number: 7820 ± 141
  Ratio of SDI-1 Treated to BSA Treated, 3H-Tdr Uptake: 0.34
  Ratio of SDI-1 Treated to BSA Treated, Cell No.: 0.29
[2]; 72 hours after liposome treatment
  detection of SDI-1 in cells: not detectable
[2]; 72 hr
  3H-Tdr Uptake: 8765 ± 533
  Cell Number: 23710 ± 1485
  Ratio of SDI-1 Treated to BSA Treated, 3H-Tdr Uptake: 0.3
  Ratio of SDI-1 Treated to BSA Treated, Cell No.: 0.28
[2]; after 3-4 hours
  fraction of cells with SDI-1 detected in the nuclei: ½
[2]; after 9 hours
  fraction of cells with SDI-1 detected in the nuclei: ⅓
[3]
  inhibition (DNA synthesis): < 20%
SUSMI
  inhibition (DNA synthesis): 40%
SV 40 early promoter; SDI-1 1.0 μg
  % Activity: 103%
  % Inhibition: 0%
  Normalized CAT Activity: 3743 counts per minute
SV 40 early promoter; SDI-1 2.0 μg
  % Activity: 106%
  % Inhibition: 0%
  Normalized CAT Activity: 3828 counts per minute
SV 40 early promoter; SDI-1 4.0 μg
  % Activity: 93%
  % Inhibition: 7%
  Normalized CAT Activity: 3366 counts per minute
Human cdc2 promoter; A31 cells (Table 17)
  Transcription (Normalized) % Activity: 52%
  Transcription (Normalized) % Inhibition: 48%
Human cdc2 promoter; SDI-1 1.0 μg
  % Activity: 50%
  % Inhibition: 50%
  Normalized CAT Activity: 1664 counts per minute
Human cdc2 promoter; SDI-1 2.0 μg
  % Activity: 60%
  % Inhibition: 40%
  Normalized CAT Activity: 2000 counts per minute
Human cdc2 promoter; SDI-1 4.0 μg
  % Activity: 61%
  % Inhibition: 39%
  Normalized CAT Activity: 2008 counts per minute
